Test results reported in ChEMBL document CHEMBL1135212, “Evolution, synthesis and SAR of tripeptide alpha-ketoacid inhibitors of the hepatitis C virus NS3/NS4A serine protease” (Bioorg Med Chem Lett, 2002).
Square brackets hold non-standard residues; d marks the D form. Peptide text beside a SMILES is read from it. Dip = N[C@H](C(=O)O)C(c1ccccc1)c1ccccc1; Abu(4,4-F2) = N[C@@H](CC(F)F)C(=O)O; Cha = N[C@@H](CC1CCCCC1)C(=O)O

Columns and labels:
[1] = molecular target: Genome polyprotein (Hepatitis C virus genotype 1a (isolate 1) (HCV), UniProt P26664); assay: Inhibition to hepatitis C virus (HCV) NS3/NS4A serine protease
[2] = molecular target: Hepatitis C virus serine protease, NS3/NS4A (Hepatitis C virus, UniProt A3EZI9+D2K2A8); assay: Inhibitory activity against hepatitis C virus (HCV) NS3/NS4A serine protease; type: protein-complex assay, Hepacivirus hominis
Chain of Hepatitis C virus serine protease, NS3/NS4A (D2K2A8 whole entry): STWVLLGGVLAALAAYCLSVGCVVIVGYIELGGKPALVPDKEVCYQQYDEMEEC
Chain of Hepatitis C virus serine protease, NS3/NS4A (A3EZI9 whole entry): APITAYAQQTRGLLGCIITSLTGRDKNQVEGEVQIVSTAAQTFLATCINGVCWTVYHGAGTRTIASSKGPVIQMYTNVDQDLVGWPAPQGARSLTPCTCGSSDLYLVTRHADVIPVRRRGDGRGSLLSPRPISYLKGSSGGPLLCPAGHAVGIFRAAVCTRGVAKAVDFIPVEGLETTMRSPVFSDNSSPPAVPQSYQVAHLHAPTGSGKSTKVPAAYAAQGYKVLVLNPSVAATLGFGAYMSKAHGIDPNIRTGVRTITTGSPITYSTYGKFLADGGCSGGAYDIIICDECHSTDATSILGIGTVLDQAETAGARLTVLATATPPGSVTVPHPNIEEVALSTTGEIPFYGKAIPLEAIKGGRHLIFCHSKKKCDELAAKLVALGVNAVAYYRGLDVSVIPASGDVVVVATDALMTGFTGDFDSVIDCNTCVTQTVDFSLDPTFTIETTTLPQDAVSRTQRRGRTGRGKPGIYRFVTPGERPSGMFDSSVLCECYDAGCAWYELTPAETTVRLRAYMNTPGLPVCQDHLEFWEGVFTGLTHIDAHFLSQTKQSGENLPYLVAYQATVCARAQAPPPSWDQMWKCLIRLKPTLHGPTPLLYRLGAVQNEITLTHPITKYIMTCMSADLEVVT

Chain of Genome polyprotein (P26664 1027-1657 limits assumed): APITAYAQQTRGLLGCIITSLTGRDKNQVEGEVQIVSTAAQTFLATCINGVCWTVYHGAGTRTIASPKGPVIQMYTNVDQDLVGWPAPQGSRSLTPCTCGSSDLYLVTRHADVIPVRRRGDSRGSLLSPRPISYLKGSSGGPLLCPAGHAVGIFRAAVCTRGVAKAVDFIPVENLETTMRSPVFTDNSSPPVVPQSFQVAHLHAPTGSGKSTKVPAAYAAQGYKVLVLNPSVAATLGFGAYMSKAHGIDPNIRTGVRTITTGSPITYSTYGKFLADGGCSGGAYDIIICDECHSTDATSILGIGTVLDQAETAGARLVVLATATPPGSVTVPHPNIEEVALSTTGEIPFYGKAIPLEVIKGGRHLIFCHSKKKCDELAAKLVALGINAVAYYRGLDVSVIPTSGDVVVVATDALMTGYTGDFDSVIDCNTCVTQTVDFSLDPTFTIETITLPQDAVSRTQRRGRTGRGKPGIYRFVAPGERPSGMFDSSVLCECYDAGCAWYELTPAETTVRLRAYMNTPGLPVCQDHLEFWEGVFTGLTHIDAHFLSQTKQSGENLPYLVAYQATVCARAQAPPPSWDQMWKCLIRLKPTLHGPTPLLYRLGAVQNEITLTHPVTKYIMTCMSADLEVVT
Chain of Genome polyprotein (P26664 1658-1711 limits assumed): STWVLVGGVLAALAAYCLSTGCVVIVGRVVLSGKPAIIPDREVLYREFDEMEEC

IC50 [1] [nM]	Ki [2] [nM]	Compound
300	–	CC(C)(C)OC(=O)N[C@@H](CCC(=O)O)C(=O)N[C@@H](CC(F)F)C(=O)N[C@@H](CC(F)F)C(=O)C(=O)O
> 50000	–	CCC(C)[C@H](NC(=O)OCc1ccccc1)C(=O)N[C@@H](CC(C)C)C(=O)N[C@H](CC(=O)O)CC(F)F (stereo partly drawn)
> 50000	–	CCC(C)[C@H](NC(=O)OCc1ccccc1)C(=O)N[C@@H](CC(C)C)C(=O)N[C@@H](CC(F)F)C(=O)C(=O)OC (stereo partly drawn)
> 50000	–	CCC(C)[C@H](NC(=O)OCc1ccccc1)C(=O)N[C@@H](CC(C)C)C(=O)N[C@@H](CC(F)F)C(O)C(=O)O (stereo partly drawn)
3300	–	CCC(C)[C@H](NC(=O)NCc1ccccc1)C(=O)N[C@@H](CC(C)C)C(=O)N[C@@H](CC(F)F)C(=O)C(=O)O (stereo partly drawn)
9400	–	CCC(C)[C@H](NC(=O)OCc1ccccc1)C(=O)N[C@@H](Cc1ccccc1)C(=O)N[C@@H](CC(F)F)C(=O)C(=O)O (stereo partly drawn)
1700	–	CCC(C)[C@H](NC(=O)OCc1ccc(C(=O)OC)cc1)C(=O)N[C@@H](CC(C)C)C(=O)N[C@@H](CC(F)F)C(=O)C(=O)O (stereo partly drawn)
> 50000	–	CC(=O)N[C@H](C(=O)[C@H](CCC(=O)O)N[C@@H](CC1CCCCC1)C(=O)N[C@H](C=O)CC(F)F)C(c1ccccc1)c1ccccc1
330	–	CC(C)C[C@H](NC(=O)[C@H](CCC(=O)O)NC(=O)OC(C)(C)C)C(=O)N[C@@H](CC(F)F)C(=O)C(=O)O
1630	–	CC(C)C[C@H](NC(=O)[C@H](CC(=O)O)NC(=O)OC(C)(C)C)C(=O)N[C@@H](CC(F)F)C(=O)C(=O)O
> 50000	–	CC[C@H](C)[C@H](NC(=O)OCc1ccccc1)C(=O)N[C@@H](CC(C)C)C(=O)N[C@H](C=O)CC(F)F
3280	–	CC[C@H](NC(=O)[C@@H](NC(=O)OCc1ccccc1)[C@@H](C)CC)C(=O)N[C@@H](CC(F)F)C(=O)C(=O)O
16000	–	CC[C@H](C)[C@H](NC(C)=O)C(=O)N[C@@H](CC(C)C)C(=O)N[C@@H](CC(F)F)C(=O)C(=O)O
1000	–	CC[C@H](C)[C@H](NC(=O)OC(C)(C)C)C(=O)N[C@@H](CC(C)C)C(=O)N[C@@H](CC(F)F)C(=O)C(=O)O
15600	–	CC[C@H](C)[C@H](NC(=O)OCc1ccccc1)C(=O)N[C@@H](C)C(=O)N[C@@H](CC(F)F)C(=O)C(=O)O
> 100000	–	CC[C@H](C)[C@H](NC(=O)OCc1ccccc1)C(=O)NCC(=O)N[C@@H](CC(F)F)C(=O)C(=O)O
380	–	CC(C)C[C@H](NC(=O)[C@@H](NC(=O)OC(C)(C)C)C1CCCC1)C(=O)N[C@@H](CC(F)F)C(=O)C(=O)O
> 50000	–	CC[C@H](C)[C@H](NC(=O)OCc1ccccc1)C(=O)N[C@@H](CC(C)C)C(=O)N[C@@H](CC(F)F)C(=O)c1nnn[nH]1
440	–	CCC(C)[C@H](NC(=O)OCc1ccc(C(=O)O)cc1)C(=O)N[C@@H](CC(C)C)C(=O)N[C@@H](CC(F)F)C(=O)C(=O)O (stereo partly drawn)
> 50000	–	CC(=O)N[C@H](C(=O)[C@H](CCC(=O)O)N[C@@H](CC1CCCCC1)C(=O)N[C@@H](CC(F)F)C(=O)O)C(c1ccccc1)c1ccccc1
16000	–	CCC(C)[C@H](NC(=O)OCc1ccccc1)C(=O)N[C@H](C(=O)N[C@@H](CC(F)F)C(=O)C(=O)O)C(C)C (stereo partly drawn)
1400	–	CC[C@H](C)[C@H](NC(=O)OCc1ccccc1)C(=O)N[C@@H](CC1CCCCC1)C(=O)N[C@@H](CC(F)F)C(=O)C(=O)O
460	–	CC(C)C[C@H](NC(=O)[C@@H](NC(=O)OC(C)(C)C)C(C)C)C(=O)N[C@@H](CC(F)F)C(=O)C(=O)O
8900	–	CC(C)C[C@H](NC(=O)[C@H](C)NC(=O)OC(C)(C)C)C(=O)N[C@@H](CC(F)F)C(=O)C(=O)O
5300	–	CC(=O)N[C@H](C(=O)[C@H](CCC(=O)O)N[C@@H](CC1CCCCC1)C(=O)N[C@@H](CC(F)F)C(=O)C(=O)O)C(c1ccccc1)c1ccccc1
2100	–	CC(C)C[C@H](NC(=O)[C@H](CCC(N)=O)NC(=O)OC(C)(C)C)C(=O)N[C@@H](CC(F)F)C(=O)C(=O)O
1700	–	CC[C@H](C)[C@H](NC(=O)OCc1ccccc1)C(=O)N[C@@H](CC(C)C)C(=O)N[C@@H](CC(F)F)C(=O)C(=O)O
–	40	CC(=O)N[C@@H](CC(=O)O)C(=O)N[C@@H](CCC(=O)O)C(=O)N[C@H](C(=O)N[C@@H](CCC(=O)O)C(=O)N[C@@H](CC1CCCCC1)C(=O)N[C@@H](CC(F)F)C(=O)O)C(c1ccccc1)c1ccccc1 (Ac-DE[Dip]E[Cha][Abu(4,4-F2)]-OH)
